Measurements taken from patent US20150283120A1, “ANTIBIOTIC METHODS AND COMPOSITIONS FOR BACTERIA INFECTIONS” (THE UNIVERSITY OF CHICAGO, priority 2012, published 2015).
Where a name gives a salt, the structure may show the parent alone.

Columns and labels:
[1] = tested on: MRSA strain USA300 Pvra-lux; assay type: cell-based, Staphylococcus aureus; conditions: compound 10 μM + oxacillin 2 μg/mL; for RG avg (relative growth): ratio of OD600 to oxacillin alone, four runs
Experimental: (§1) In the secondary screen each microtiter plate contained either cells in TSB alone (16 replicates), cells with oxacillin (2 μg/mL, 31 replicates), or cells with test compound and oxacillin (2 μg/mL, 49 wells). Each compound was assayed in four separate biological replicates.
(§2) All compounds classified in the primary screen as synergists that were vraSR-stimulating or -repressing (as shown in Table 8) were screened in a secondary assay for their effects on both growth and Pvra::lux induction by oxacillin. […] Each compound was tested four separate times at 10 μM in the presence of oxacillin (2 μg/mL) and luminescence was measured every 15 minutes. Relative growth (RG) and relative luminescence (RL) was calculated as the ratio between the OD600 or max LU value in the presence of compound and oxacillin over the average from pooled control values obtained from the same plate. […] Compounds that produced an average RG (ratio of the OD600 of the culture grown with test compound combined with oxacillin to that of oxacillin alone) of <0.8 were classified as oxacillin synergists or potentiators. The relative luminescence (RL) was the ratio of the LU produced in the presence of the test compound combined with oxacillin to that produced by oxacillin alone. Compounds were classified as “vraSR repressors” (mean RL of <0.8), “vraSR stimulators”, (mean RL>1.2), and “vraSR neutral” (mean RL between 0.80-1.2). […] In contrast, 34 compounds had no effect on growth in the presence of oxacillin (“un” in the OD600 category). Among the oxacillin potentiators, there were 2 vraSR stimulators, 3 vraSR neutral compounds and 10 vraSR repressors.

[2] = tested on: vraSR transcription (Pvra::lux); assay type: cell-based, Staphylococcus aureus; conditions: compound 10 μM + oxacillin 2 μg/mL; for RL avg (relative luminescence): ratio of LU to oxacillin alone, four runs
Experimental: as §1, §2

Molecule	OD600 category [1]	RG avg (relative growth) [1]	Effect on vraSR transcription [2]	RL avg (relative luminescence) [2]
CN(C)CCCN1c2ccccc2Sc2ccccc21 [Promazine hydrochloride]	un (no effect on growth in the presence of oxacillin (“un” in the OD600 category))	1.09	neutral (“vraSR neutral” (mean RL between 0.80-1.2))	1.08
COc1ccc(-c2cc(=O)c3c(O)cc(O)cc3o2)cc1 [Acacetin]	un (no effect on growth in the presence of oxacillin (“un” in the OD600 category))	0.91	neutral (“vraSR neutral” (mean RL between 0.80-1.2))	0.88
NS(=O)(=O)c1cc2c(cc1Cl)NC(C(Cl)Cl)NS2(=O)=O (stereo not drawn) [Trichlormethiazide]	un (no effect on growth in the presence of oxacillin (“un” in the OD600 category))	1.10	neutral (“vraSR neutral” (mean RL between 0.80-1.2))	1.06
O=C1OC(CN2CCOCC2)CN1/N=C/c1ccc([N+](=O)[O-])o1 (stereo not drawn) [Furaltadone hydrochloride]	un (no effect on growth in the presence of oxacillin (“un” in the OD600 category))	1.00	repress (“vraSR repressors” (mean RL of <0.8))	1.01
N[C@@H](Cc1cc(I)c(Oc2ccc(O)c(I)c2)c(I)c1)C(=O)O [Liothyronine]	un (no effect on growth in the presence of oxacillin (“un” in the OD600 category))	0.88	neutral (“vraSR neutral” (mean RL between 0.80-1.2))	0.87
C(=C\c1ccccc1)/CN1CCN(C(c2ccccc2)c2ccccc2)CC1 [Cinnarizine]	un (no effect on growth in the presence of oxacillin (“un” in the OD600 category))	0.97	neutral (“vraSR neutral” (mean RL between 0.80-1.2))	0.94
CCCC(=O)Nc1ncnc2c1ncn2[C@@H]1O[C@@H]2COP(=O)(O)O[C@H]2[C@H]1OC(=O)CCC [Bucladesine sodium salt]	un (no effect on growth in the presence of oxacillin (“un” in the OD600 category))	1.02	neutral (“vraSR neutral” (mean RL between 0.80-1.2))	0.94
C[C@@H]1[C@H](O)[C@@H](C)/C=C/C=C/CC/C=C/C=C/C=C/C=C/C(O[C@H]2O[C@H](C)[C@@H](O)[C@H](N)[C@@H]2O)CC2O[C@](O)(CC(O)C(O)CCC(O)CC(O)CC(O)CC(=O)O[C@H]1C)CC(O)C2C(=O)O (stereo partly drawn) [Nystatine]	un (no effect on growth in the presence of oxacillin (“un” in the OD600 category))	1.00	neutral (“vraSR neutral” (mean RL between 0.80-1.2))	1.04
C[C@]12CC[C@H](O)C[C@H]1CC[C@@H]1[C@@H]2CC[C@]2(C)[C@@H](C3=CC(=O)OC3)CC[C@]12O [Digitoxigenin]	un (no effect on growth in the presence of oxacillin (“un” in the OD600 category))	1.01	neutral (“vraSR neutral” (mean RL between 0.80-1.2))	0.97
CN[C@@H]1[C@H](O)[C@H](NC)[C@H]2O[C@@]3(O)C(=O)C[C@@H](C)O[C@H]3O[C@@H]2[C@H]1O [Spectinomycin dihydrochloride]	un (no effect on growth in the presence of oxacillin (“un” in the OD600 category))	0.89	neutral (“vraSR neutral” (mean RL between 0.80-1.2))	0.77
NS(=O)(=O)c1cc2c(cc1Cl)N=C(CSCc1ccccc1)NS2(=O)=O [Benzthiazide]	un (no effect on growth in the presence of oxacillin (“un” in the OD600 category))	1.01	neutral (“vraSR neutral” (mean RL between 0.80-1.2))	0.95
CCn1nc(C(=O)O)c(=O)c2cc3c(cc21)OCO3 [Cinoxacin]	un (no effect on growth in the presence of oxacillin (“un” in the OD600 category))	1.05	neutral (“vraSR neutral” (mean RL between 0.80-1.2))	1.03
Trimeprazine tartrate	un (no effect on growth in the presence of oxacillin (“un” in the OD600 category))	1.04	neutral (“vraSR neutral” (mean RL between 0.80-1.2))	0.96
COc1cccc2c1C(=O)c1c(O)c3c(c(O)c1C2=O)C[C@@](O)(C(C)=O)C[C@@H]3O[C@H]1C[C@H](N)[C@H](O)[C@H](C)O1 [Daunorubicin hydrochloride]	un (no effect on growth in the presence of oxacillin (“un” in the OD600 category))	0.98	repress (“vraSR repressors” (mean RL of <0.8))	1.00
CCCCN(CCCC)CCCOC(=O)c1ccc(N)cc1 [Butacaine]	un (no effect on growth in the presence of oxacillin (“un” in the OD600 category))	1.03	neutral (“vraSR neutral” (mean RL between 0.80-1.2))	0.98
CCC(=O)OCC(=O)[C@@]1(OC(=O)CC)[C@@H](C)C[C@H]2[C@@H]3CCC4=CC(=O)C=C[C@]4(C)[C@@]3(Cl)[C@@H](O)C[C@@]21C [Beclomethasone dipropionate]	un (no effect on growth in the presence of oxacillin (“un” in the OD600 category))	0.96	neutral (“vraSR neutral” (mean RL between 0.80-1.2))	0.96
C=C(C)[C@@H]1CC[C@]2(C(=O)O)CC[C@]3(C)[C@H](CC[C@@H]4[C@@]5(C)CC[C@H](O)C(C)(C)[C@@H]5CC[C@]43C)[C@@H]12 [Betulinic acid]	un (no effect on growth in the presence of oxacillin (“un” in the OD600 category))	0.87	neutral (“vraSR neutral” (mean RL between 0.80-1.2))	0.83
CC(C(=O)O)c1ccc(N2Cc3ccccc3C2=O)cc1 (stereo not drawn) [Indoprofen]	un (no effect on growth in the presence of oxacillin (“un” in the OD600 category))	0.98	neutral (“vraSR neutral” (mean RL between 0.80-1.2))	0.87
CCN(CC)CCc1nc(-c2ccccc2)no1.O=C(O)CC(O)(CC(=O)O)C(=O)O [Oxalamine citrate salt]	un (no effect on growth in the presence of oxacillin (“un” in the OD600 category))	1.03	neutral (“vraSR neutral” (mean RL between 0.80-1.2))	1.00
C=C1CC[C@H](O)C/C1=C/C=C1\CCC[C@]2(C)[C@@H]([C@H](C)/C=C/[C@H](C)C(C)C)CC[C@@H]12 [Calciferol]	un (no effect on growth in the presence of oxacillin (“un” in the OD600 category))	0.96	neutral (“vraSR neutral” (mean RL between 0.80-1.2))	0.88
C[N+]12CCC(CC1)C(OC(=O)C(O)(c1ccccc1)c1ccccc1)C2 (stereo not drawn) [Clidinium bromide]	un (no effect on growth in the presence of oxacillin (“un” in the OD600 category))	0.97	neutral (“vraSR neutral” (mean RL between 0.80-1.2))	0.95
C#C[C@]1(O)CC[C@H]2[C@@H]3CCc4cc(OC)ccc4[C@H]3CC[C@@]21C [Ethynylestradiol 3-methyl ether]	un (no effect on growth in the presence of oxacillin (“un” in the OD600 category))	0.95	repress (“vraSR repressors” (mean RL of <0.8))	0.97
Cc1ccnc(NS(=O)(=O)c2ccc(N)cc2)n1 [Sulfamerazine]	un (no effect on growth in the presence of oxacillin (“un” in the OD600 category))	0.99	neutral (“vraSR neutral” (mean RL between 0.80-1.2))	1.01
CC(Oc1ccccc1)C(=O)N[C@@H]1C(=O)N2[C@@H]1SC(C)(C)[C@@H]2C(=O)O (stereo partly drawn) [Phenethicillin potassium salt]	un (no effect on growth in the presence of oxacillin (“un” in the OD600 category))	0.94	neutral (“vraSR neutral” (mean RL between 0.80-1.2))	0.88
